PMC9281089 (Journal of Translational Medicine, 2022)
Values joined by “and” are separate entries in the source; they are usually repeats but may differ in a detail not shown here. Identical values can stand only once. Counter-ions that a name gives are not always drawn.

Experiments:
[1] = target: SARS-CoV-2 S-protein RBD / ACE2 interaction (UniProt P0DTC2+Q9BYF1); assay: biochemical; set-up: species or system SARS-CoV-2 / human; conditions: EC50 (HTRF), inhibition of binding of S-RBD to ACE2

SMILES | EC50 [1] | cytotoxicity (comparative) (cells; compared with tannic acid and nafamostat mesilate) | cytotoxicity to cells (cells; at a high concentration (> 30 µM)) | cytotoxicity at effective concentration (cells; when the effective concentration is applied)
N=C(N)c1ccc2cc(OC(=O)c3ccc(N=C(N)N)cc3)ccc2c1 [Nafamostat mesylate, reference compound] | 11.3 µM | – | – | –
COc1ccc2c3ccnc4ccc(=O)n(c2c1)c43 [TS-984, 9-Methoxycanthin-6-one] | 36.2 µM | lower cytotoxicity | – | –
O=C1c2ccccc2C(=O)c2ccccc21 [TS-1276, anthraquinone] | 55.9 µM and 16.4 µM | – | – | –
O=C(OC[C@H]1O[C@@H](OC(=O)c2cc(O)c(O)c(OC(=O)c3cc(O)c(O)c(O)c3)c2)[C@H](OC(=O)c2cc(O)c(O)c(OC(=O)c3cc(O)c(O)c(O)c3)c2)[C@@H](OC(=O)c2cc(O)c(O)c(OC(=O)c3cc(O)c(O)c(O)c3)c2)[C@@H]1OC(=O)c1cc(O)c(O)c(OC(=O)c2cc(O)c(O)c(O)c2)c1)c1cc(O)c(O)c(OC(=O)c2cc(O)c(O)c(O)c2)c1 [tannic acid, reference compound] | – | – | strong cytotoxicity | higher cytotoxicity that leads to cell death
